ChEMBL document CHEMBL5728092, “Benzimidazole derivatives as modulators of ROR-gamma” (2020)

Target: T1, Nuclear receptor ROR-gamma (Homo sapiens, UniProt P51449)
T1 sequence (P51449 whole entry): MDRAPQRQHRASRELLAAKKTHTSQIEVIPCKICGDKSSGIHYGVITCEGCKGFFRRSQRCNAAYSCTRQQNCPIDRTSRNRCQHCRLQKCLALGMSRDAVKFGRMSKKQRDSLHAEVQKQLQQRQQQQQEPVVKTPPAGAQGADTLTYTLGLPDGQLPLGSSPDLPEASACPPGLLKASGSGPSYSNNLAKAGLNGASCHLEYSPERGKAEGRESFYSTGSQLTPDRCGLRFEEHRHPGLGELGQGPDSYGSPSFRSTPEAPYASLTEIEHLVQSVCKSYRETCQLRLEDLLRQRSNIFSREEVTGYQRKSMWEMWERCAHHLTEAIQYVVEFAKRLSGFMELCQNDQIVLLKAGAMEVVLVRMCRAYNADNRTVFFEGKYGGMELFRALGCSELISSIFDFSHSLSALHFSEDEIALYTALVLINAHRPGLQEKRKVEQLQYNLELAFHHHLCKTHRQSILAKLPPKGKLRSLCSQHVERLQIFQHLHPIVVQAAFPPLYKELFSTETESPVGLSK
Assay: Binding Assay : Compounds described herein were tested for ability to bind to RORγ in a cell-free competition assay with commercially available radio-ligand (RL), 25-hydroxy [26,27-3H]-cholesterol (PerkinElmer, Cat. #NET674250UC), for a ligand binding site on a recombinant RORγ Ligand Binding Domain (LBD) protein expressed as a 6×His-Glutathione-S-Transferase (GST) fusion. The assay was performed in 96-well SPA plates (PerkinElmer, Cat. #1450-401) in 50 mM HEPES buffer, pH 7.4, containing 150 mM NaCl, 5 mM MgCl2, 10% (v/v) glycerol, 2 mM CHAPS, 0.5 mM β-octylglucopyranoside and 5 mM DTT. Tested compounds were dissolved in DMSO, and semi-log (3.162×) serial dilutions of the compounds were prepared in the same solvent. Two μL of the DMSO solutions were mixed with 28 μL of 8.6 nM 25-hydroxy [26,27-3H]-cholesterol and 50 μL of 24 nM RORγ LBD. The plate was shaken at 700 rpm for 20 min and incubated for 10 min at rt, after which 40 μL of poly-Lys YSi SPA beads (PerkinElmer, Cat. #RPNQ0010) were added to achieve […] of the beads per well. The plate was incubated on an orbital shaker for 20 min and then for 10 min without agitation at rt. SPA signal for tritium beta radiation was registered on PerkinElmer Microbeta plate reader. Percent inhibition values were calculated based on the high signal obtained with DMSO control and the low signal observed with 10 μM standard RORγ inverse agonist T0901317 (SigmaAldrich, Cat. #T2320). The percent inhibition vs. concentration data were fit into a four-parameter model, and IC50 values were calculated from the fit as the concentrations corresponding to the inflection points on the dose-response curves.

Ki [nM] | Compound
< 100 | CCS(=O)(=O)c1ccc([C@H](CO)NC(=O)c2ccc3c(c2)nc(C2CC2)n3Cc2cccc3c2OC(F)(F)O3)cc1
< 100 | CCS(=O)(=O)c1ccc(CNC(=O)c2ccc3c(c2)nc(C(F)(F)F)n3Cc2cccc3c2OC(F)(F)O3)[n+]([O-])c1
< 100 | CCS(=O)(=O)c1ccc([C@H](CO)NC(=O)c2ccc3c(c2)nc(C2(F)CCC2)n3Cc2cccc3c2OC(F)(F)O3)cc1
